For one data set, the system named is lung (A549) cancer cells. The note with it: cited from earlier work.
Data set [1] deals with breast (MDA MB-231) cancer cells. The conditions noted are these: cited from earlier work.
A further data set concerns HeLa S3 cells. Also on record: method as in PMID 2324009. The note with it: cited from earlier work.
A further data set relates to Bacillus subrifis. Details: method as in doi:10.1016/0040-4039(93)88010-G. The note with it: cited from earlier work.
The subject of data set [2] is Staphylococcus aureus ATCC 25923. Details: method as in PMID 24389824. The note with it: cited from earlier work.
The test system of data set [3] is Staphylococcus epidermidis ATCC 12228. Also on record: method as in PMID 24389824. The note with it: cited from earlier work.
Data set [4] relates to Klebsiella pneumoniae ATCC 13883. The experiment in a line: Antibacterial assay, broth dilution MIC. In kind it is cell-based. As to the method:
(§1) The MIC values of 5–12 against Staphylococcus aureus ATCC 29213, MRSA, Klebsiella pneumoniae ATCC 13883 and Pseudomonas aeruginosa ATCC 9027 were determined via a broth dilution assay in 96-well plates, with levofloxacin as a control (Table S7).
(§2) The broth dilution method was used to determine the minimum inhibitory concentrations (MICs). The details are described in the Supplementary Materials. […]
(§3) Compounds 5 – 12 were tested for antibacterial activity against Staphylococcus aureus ATCC 29213, methicillin-resistant Staphylococcus aureus (MRSA), Klebsiella pneumoniae ATCC 13883 and Pseudomonas aeruginosa ATCC 9027. The MICs were determined using broth dilution assay. The bacterial strains were cultured overnight and diluted to […] in Luria-Bertani (LB, Table S1) broth. 5 – 12 were dissolved in DMSO, serially diluted to 10 different concentrations (64, 32, 16, 8, 4, 2, 1, 0.5. 0.25, 0.125 μg/mL) using LB broth on the 96 well plate.
(§4) Levofloxacin (Bide Pharmatech Ltd., Shanghai, China) was dissolved in DMSO, serially diluted to 1 0 concentrations (0.125 –64 μg/mL) using LB broth on each 96-well plate. Then 100 μL LB broth containing compounds 5 – 12 or levofloxacin and 100 μL of bacterial solution were mixed per well. The plates were incubated at 37 °C for 18 h. Finally, 50 μL resazurin (Shanghai Macklin Biochemical Technology Co., Ltd., Shanghai, China) was added into each well to visualize the result. […]
For orientation: Broth dilution looks for growth in wells or tubes with falling amounts of substance.

In data set [5] the test system is methicillin-resistant Staphylococcus aureus (MRSA). The experiment in a line: Antibacterial assay, broth dilution MIC. It is filed as cell-based. The conditions noted are these: 18 h. As for the experimental part: as §1, §2, §3, §4
Data set [6] concerns Pseudomonas aeruginosa ATCC 9027. The experiment in a line: Antibacterial assay, broth dilution MIC. In kind it is cell-based. As to the method:
as §1, §2, §3, §4

Data set [7] concerns Staphylococcus aureus ATCC 29213. Kind of data set: Antibacterial assay, broth dilution MIC. In kind it is cell-based. As to the method: as §1, §2, §3, §4
The target in a further data set is α-glucosidase (Saccharomyces cerevisiae, UniProt P53341). The experiment in a line: biochemical. The note with it: read-out: IC50, α-glucosidase inhibitory activity.
Sequence of α-glucosidase (P53341 whole entry): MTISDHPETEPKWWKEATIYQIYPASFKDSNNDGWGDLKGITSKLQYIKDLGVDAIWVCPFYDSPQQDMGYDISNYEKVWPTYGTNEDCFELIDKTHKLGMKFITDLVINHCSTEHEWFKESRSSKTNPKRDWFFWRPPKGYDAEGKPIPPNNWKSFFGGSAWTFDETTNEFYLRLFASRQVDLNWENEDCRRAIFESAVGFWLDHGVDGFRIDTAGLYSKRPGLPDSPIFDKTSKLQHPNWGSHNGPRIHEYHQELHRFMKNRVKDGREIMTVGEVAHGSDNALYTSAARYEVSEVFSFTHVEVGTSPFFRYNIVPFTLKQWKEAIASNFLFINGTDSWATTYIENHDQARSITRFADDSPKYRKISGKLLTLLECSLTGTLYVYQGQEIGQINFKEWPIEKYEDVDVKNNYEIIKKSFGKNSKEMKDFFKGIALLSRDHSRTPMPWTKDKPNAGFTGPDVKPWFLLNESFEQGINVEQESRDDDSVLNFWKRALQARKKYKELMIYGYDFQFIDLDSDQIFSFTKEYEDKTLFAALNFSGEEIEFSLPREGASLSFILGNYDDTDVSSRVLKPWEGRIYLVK
The mark [8] stands for this setting: ATCC13883, Klebsiella pneumoniae ATCC 13883, 37 °C, 18 h, read-out: MIC.
The mark [9] stands for this setting: Staphylococcus aureus, 37 °C, read-out: MIC.
Where [10] appears, read: ATCC9027, Pseudomonas aeruginosa ATCC 9027, 37 °C, 18 h, read-out: MIC.
The mark [11] stands for this setting: ATCC29213, Staphylococcus aureus ATCC 29213, 37 °C, 18 h, read-out: MIC.

Converted amounts (≈) assume the structure as drawn. Where two headings read alike, the source gives them in different places.

As to “5-Methyl phenazine-1-carboxylic acid [Compound 4]”, the IC50 (in general, the point on the concentration scale where inhibition reaches its midpoint) was 0.4887 ± 0.00252 µM in the data set with lung (A549) cancer cells and 0.4586 ± 0.00248 µM in data set [1].
Consider `CC1(C)OC2=C(C(=O)c3cc(O)cc(O)c3C2=O)[C@@H]2C=C(CO)CC[C@@H]21` [Compound 1, naphthgeranine B], for which the “IC50, cytotoxic effect” value with HeLa S3 cells was 1.6 µg/mL (≈ 4.49 µM).
As for `CC(C)=CCC[C@@]1(C)OC2=C(C(=O)c3c(Br)c(O)cc(O)c3C2=O)[C@@H]2C=C(C)CC[C@@H]21` [Compound 2, marinone], in the data set with Bacillus subrifis, the minimum inhibitory concentration (MIC) (usually the smallest concentration in the dilution series that meets the test's criterion for growth inhibition) was 1 µg/mL (≈ 2.05 µM).
As for `Oc1c(Br)ccc2nc3ccccc3nc12` [Compound 3, 2-Bromo-1-hydroxyphenazine], the minimal inhibitory concentration (MIC) in [2] and in [3] was 1.72 µg/mL (≈ 6.25 µM) throughout.
As for `CC1=CC2C3=C(OC(C)(C)C2CC1O)C(=O)c1c(O)cc(O)cc1C3=O` (stereo not shown) [Compound 5, naphthgeranine G], the MIC in [4] (setting [8]), in data set [5] (setting [9]), in data set [6] (setting [10]) and in data set [7] (setting [11]) was above 64 µg/mL in each case. Further, the half-maximal inhibitory concentration (IC50) on α-glucosidase was determined as 66.4 ± 6.7 µM.
On to `CC1=CC2C3=C(OC(C)(C)C2CC1O)C(=O)c1c(O)cc(O)cc1C3=O` (stereo not shown) [Compound 6, 12-Hydroxy-naphthgeranine A], for which the minimum inhibitory concentration (MIC) in data set [4] (Klebsiella pneumoniae ATCC 13883, 37 °C, 18 h) was above 64 µg/mL; in [5] (37 °C), above 64 µg/mL; in data set [6] (Pseudomonas aeruginosa ATCC 9027, 37 °C, 18 h) it was above 64 µg/mL; in [7] (Staphylococcus aureus ATCC 29213, 37 °C, 18 h) it was above 64 µg/mL. Further, the IC50 at α-glucosidase is 116 ± 4.4 µM.
Consider `CC1=CC2C3=C(OC(C)(C)C2CC1)C(=O)c1c(O)cc(O)cc1C3=O` (stereo not shown) [Compound 7, naphthgeranine A], for which the MIC in [4] (setting [8]), in data set [5] (setting [9]), in [6] (setting [10]) and in data set [7] (setting [11]) was above 64 µg/mL in each case. Also, the IC50 at α-glucosidase stood at 185.9 ± 0.2 µM.
For the compound `O=C(O)c1cccc2c1Nc1ccccc1N2C(=O)CO` [Compound 8, 5-(2-hydroxyacetyl)-5,10-dihydrophenazine-1-carboxylic acid], the minimal inhibitory concentration (MIC) in data set [4] (setting [8]), in data set [5] (setting [9]), in data set [6] (setting [10]) and in data set [7] (setting [11]) was above 64 µg/mL in each case.
With `NC(=O)c1cccc2nc3ccccc3nc12` [Compound 9, phenazine-1-carboxamide], the minimal inhibitory concentration (MIC) in data set [4] (setting [8]) was above 64 µg/mL; in [5] (setting [9]) it was 16 µg/mL (≈ 71.7 µM); in [6] (setting [10]), above 64 µg/mL; in data set [7] (setting [11]), 64 µg/mL (≈ 287 µM). The IC50 on α-glucosidase was 105 ± 10.5 µM.
For `O=C(O)c1cccc2nc3ccccc3nc12` [Compound 10, phenazine-1-carboxylic acid], the MIC is above 64 µg/mL in [4] (Klebsiella pneumoniae, ATCC13883, 18 h); above 64 µg/mL in data set [5] (Staphylococcus aureus); above 64 µg/mL in data set [6] (Pseudomonas aeruginosa, ATCC9027, 18 h); 32 µg/mL (≈ 143 µM) in [7] (Staphylococcus aureus, ATCC29213, 18 h). The IC50 at α-glucosidase is above 800 µM.
Take `COC(=O)c1cccc2nc3ccccc3nc12` [Compound 11, 1-carbomethoxyphenazine]: the minimal inhibitory concentration (MIC) in data set [4] (setting [8]) and in data set [5] (setting [9]) was above 64 µg/mL in each case.
In the case of `c1ccc2nc3ccccc3nc2c1` [Compound 12, phenazin], the minimal inhibitory concentration (MIC) was above 64 µg/mL in data set [4] (setting [8]) and 16 µg/mL (≈ 88.8 µM) in data set [5] (setting [9]).
In the case of `C[C@H]1COc2c(N3CCN(C)CC3)c(F)cc3c(=O)c(C(=O)O)cn1c23` [LEV, levofloxacin, reference compound], the minimum inhibitory concentration (MIC) in data set [4] (setting [8]) worked out at 1 µg/mL (≈ 2.77 µM); in [5] (setting [9]) it was 0.5 µg/mL (≈ 1.38 µM); in data set [6] (setting [10]), 2 µg/mL (≈ 5.53 µM); in data set [7] (setting [11]) it was 0.25 µg/mL (≈ 0.692 µM).

The values above are taken from paper PMC11313965, “Bioactive Naphthoquinone and Phenazine Analogs from the Endophytic Streptomyces sp. PH9030 as α-Glucosidase Inhibitors” (Molecules, 2024).
